The text below walks through data of US20250340604A1, “BLOOD-BRAIN BARRIER TRANSLOCATING PEPTIDES AND RELATED MOLECULES AND METHODS OF USE THEREOF” (Enkefalos Biosciences, Inc., priority 2022, published 2025).

Like-named read-outs stand apart in the source and are kept apart here. Ends that are not written are not given here.

Series [1] concerns the target T1, human transferrin receptor (hTfR) (Homo sapiens, UniProt P02786).
T1 construct: expressed in transfected cells; host or cells: HEK293F
Briefly: Flow cytometry internalization assay, hTfR-expressing HEK293F cells. In kind it is cell-based. The conditions noted are these: 50 nM Alexafluor 488 labeled protein, 4 h at 37° C., HEK293F cells transfected with hTfR; FIG. 2. As for the experimental part: (§1) Free dye was then removed by passage through one to two desalting columns. HEK293F cells were first serially passaged two to three times, then transfected with expression constructs encoding human or mouse transferrin receptor ([…], respectively), and grown for 2-3 days at 37° C., 8% CO2, 130 rpm shaking in preparation for the assay. […] Cells were then pelleted, supernatant discarded, and resuspended in 40 μL fresh media containing 250 nM anti-488 quenching antibody (or media lacking 488 quenching antibody as a control), incubated on ice for 5 min, pelleted, supernatant discarded, washed with 200 μL cold FACS buffer, pelleted, supernatant discarded, and resuspended in 200 μL cold FACS buffer. Each sample was then subjected to FACS analysis using the FITC fluorescence detection channel, using Gate 1 (forward scatter linear vs. side scatter linear) to select live cells with normal morphology, using Gate 2 (side scatter area vs. side scatter linear) to select single cells, and measuring logarithmic FITC signal for 20,000-50,000 cells per sample. Subsequent data analysis was carried out using the FlowJo software package.
For orientation: Flow cytometry measures light scatter and fluorescence of single cells or particles in a stream.

The target of series [2] is T2, mouse transferrin receptor (mTfR) (Mus musculus, UniProt Q62351).
T2 construct: expressed in transfected cells; host or cells: HEK293F
T2 sequence (Q62351 whole entry): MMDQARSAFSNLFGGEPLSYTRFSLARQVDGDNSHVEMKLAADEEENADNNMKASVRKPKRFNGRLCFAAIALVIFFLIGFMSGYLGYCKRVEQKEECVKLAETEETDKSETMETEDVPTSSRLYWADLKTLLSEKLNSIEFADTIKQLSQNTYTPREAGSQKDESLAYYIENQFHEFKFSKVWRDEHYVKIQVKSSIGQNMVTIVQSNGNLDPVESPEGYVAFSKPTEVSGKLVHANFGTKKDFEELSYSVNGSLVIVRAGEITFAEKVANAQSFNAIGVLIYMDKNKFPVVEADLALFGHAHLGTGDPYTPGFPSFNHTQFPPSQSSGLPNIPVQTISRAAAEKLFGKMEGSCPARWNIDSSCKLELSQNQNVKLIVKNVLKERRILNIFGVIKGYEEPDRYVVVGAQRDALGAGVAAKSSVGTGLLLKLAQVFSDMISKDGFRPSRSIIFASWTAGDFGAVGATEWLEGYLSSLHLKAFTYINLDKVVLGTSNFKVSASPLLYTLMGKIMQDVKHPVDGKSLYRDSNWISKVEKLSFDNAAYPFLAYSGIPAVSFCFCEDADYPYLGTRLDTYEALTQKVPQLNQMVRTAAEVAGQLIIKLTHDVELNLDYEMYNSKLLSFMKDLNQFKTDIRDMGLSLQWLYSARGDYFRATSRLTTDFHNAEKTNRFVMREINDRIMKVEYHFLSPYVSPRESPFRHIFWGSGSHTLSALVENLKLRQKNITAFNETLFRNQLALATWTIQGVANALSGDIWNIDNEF
Briefly: Flow cytometry internalization assay, mTfR-expressing HEK293F cells. In kind it is cell-based. The conditions noted are these: 50 nM Alexafluor 488 labeled protein, 4 h at 37° C., HEK293F cells transfected with mTfR; FIG. 2. The procedure:
as §1

For series [3] the following is noted: monovalent trastuzumab knob-hole cyclotide fusions, 25 mg/kg, 24 hours, brain homogenate ELISA, versus trastuzumab alone; FIG. 8B. For orientation: An ELISA detects its analyte on a solid surface through an enzyme-linked reagent.
Description: Female C57BL/6 mice, age 10-12 weeks, were weighed and administered purified trastuzumab antibody or trastuzumab antibody-monovalent cyclotide fusions, made monovalent by knobs-holes fusion (targeting IGF1R, LRP1, or RAGE receptors) in triplicate at 25 mg/kg in phosphate buffered saline (PBS). After 24 hours, mice were perfused with Dulbecco's PBS containing anesthetic via aortic puncture and brains were removed. One brain hemisphere was transferred to 4% paraformaldehyde in PBS for 24 hours at 4° C., then transferred to PBS at 4° C., paraffin embedded, thin-sectioned using a microtome, and slices were mounted on slides for immunohistochemistry (IHC). The other brain hemisphere was flash frozen and stored at −80° C. prior to homogenization. […]
Antibodies present in brain were quantified by enzyme-linked immunosorbent assay (ELISA). […] Plates were washed 4 times with TBST and once with TBS, developed with 3,3′,5,5′-tetramethylbenzidine (TMB) for 2 minutes, quenched with 1 N sulfuric acid, and read at 450 nm in a SpectraMax plate reader. […] Amounts of antibodies (e.g., antibody fusion proteins or antibody alone) present in brain homogenates were determined by interpolation from each standard curve and were expressed as percents of injected dose per gram of brain (FIG. 8B).
For series [4] the following is noted: rat, even after repeat dose; cited from earlier work.
The conditions of series [5]: mouse, even after repeat dose; cited from earlier work.

T1 sequence (P02786 whole entry): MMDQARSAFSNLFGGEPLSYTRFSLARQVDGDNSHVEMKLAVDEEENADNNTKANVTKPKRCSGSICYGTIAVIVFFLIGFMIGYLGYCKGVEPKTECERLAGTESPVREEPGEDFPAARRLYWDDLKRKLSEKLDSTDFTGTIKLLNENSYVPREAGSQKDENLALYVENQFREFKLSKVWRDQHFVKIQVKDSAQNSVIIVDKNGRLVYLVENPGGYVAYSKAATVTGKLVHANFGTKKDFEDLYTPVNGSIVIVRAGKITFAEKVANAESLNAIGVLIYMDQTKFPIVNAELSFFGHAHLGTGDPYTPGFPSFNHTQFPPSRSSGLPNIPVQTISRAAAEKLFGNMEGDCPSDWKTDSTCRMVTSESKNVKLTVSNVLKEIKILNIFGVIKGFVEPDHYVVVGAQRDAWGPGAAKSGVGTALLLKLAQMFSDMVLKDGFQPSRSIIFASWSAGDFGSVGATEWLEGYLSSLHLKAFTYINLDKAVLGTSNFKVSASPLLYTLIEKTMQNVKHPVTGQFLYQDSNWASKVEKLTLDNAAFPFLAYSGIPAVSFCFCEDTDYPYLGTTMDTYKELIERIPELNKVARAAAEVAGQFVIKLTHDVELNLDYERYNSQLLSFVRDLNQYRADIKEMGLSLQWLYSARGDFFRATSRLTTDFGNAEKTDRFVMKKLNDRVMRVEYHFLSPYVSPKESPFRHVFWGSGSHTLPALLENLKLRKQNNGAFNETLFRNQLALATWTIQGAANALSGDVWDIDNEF

On to adalimumab, for which the “internalization (mean FITC fluorescence intensity)” value in series [1] and in series [2] was “not” each time.
Take “cyclotide binding Hu LRP-1; loop 1 peptide WLTLGIANKGIDVYDVK (SEQ ID NO:39); cyclotide SEQ ID NO:85 (GGVCWLTLGIANKGIDVYDVKCRRDSDCPGACICRGNGYCGSGSD; not fully specified (bridges); cysteine pairing not given here) [CYC30]”: the “trastuzumab delivery to the brain (percents of injected dose per gram of brain)” value in series [3] is “did not exhibit enhancement”.
Take Ziconitide: the “anti-drug antibodies (ADAs)” value in series [4] and in series [5] was “no anti-drug antibodies (ADAs) were detectable” each time.
With “cyclotide binding Hu LRP-1; loop 1 peptide WYETKTKLYVGVVK (SEQ ID NO:43); cyclotide SEQ ID NO:89 (GGVCWYETKTKLYVGVVKCRRDSDCPGACICRGNGYCGSGSD; not fully specified (bridges); cysteine pairing not given here) [CYC34]”, the “trastuzumab delivery to the brain (percents of injected dose per gram of brain)” value in series [3] is “greatest enhancement”.
